Assay [1] can be described thus: Inhibition of protein kinase AB (PKB amino acid substitutions). Type of assay: protein assay.
A short description of assay [2]: Inhibition protein kinase A.
Assay [3] deals with cAMP-dependent protein kinase catalytic subunit alpha (Bos taurus) (UniProt P00517). As to the kind of experiment: Binding constant for protein kinase AB3 (3 PKB amino acid substitutions).
The target is the same in assay [4]. As to the kind of experiment: Binding constant for protein kinase AB5 (5 PKB amino acid substitutions).

`CC1(C)CCN(c2ccc(O)c(C(=O)c3ccc(C(=O)N[C@@H]4CCCNC[C@H]4NC(=O)c4ccncc4)cc3)c2)CC1.Cl.Cl.Cl` registered an IC50 in assay [1] of 0.04 µM.

Turning to `CC1(C)CCCNC1c1ccc(O)c(C(=O)c2ccc(C(=O)N[C@@H]3CCCNC[C@H]3NC(=O)c3ccncc3)cc2)c1F.Cl.Cl.Cl` (stereo partly specified), the values for the IC50 in assay [2] and in assay [1] were 2.4 µM and 0.75 µM, respectively. In addition, the Kd in assay [3] was 3.77 µM; in assay [4], 0.26 µM.

On to `Cl.Cl.Cl.O=C(N[C@@H]1CCCNC[C@H]1NC(=O)c1ccncc1)c1ccc(C(=O)c2cc(N3CCCCC3)ccc2O)cc1`, for which the half-inhibitory concentration (IC50) was 0.4 µM in assay [2] and 0.02 µM in assay [1]. Also, the figures for the dissociation constant (Kd) in assay [3] and in assay [4] were 0.193 µM and 0.009 µM, respectively.

On to `CC1(C)CCCN(c2ccc(O)c(C(=O)c3ccc(C(=O)N[C@@H]4CCCNC[C@H]4NC(=O)c4ccncc4)cc3)c2)C1.Cl.Cl.Cl`, for which the IC50 in assay [2] turned out to be 1.9 µM; in assay [1], 0.02 µM. For the same molecule, the results for the Kd in assay [3] and in assay [4] were 0.077 µM and 0.008 µM, respectively.

For the molecule `CN(C)c1ccc(O)c(C(=O)c2ccc(C(=O)N[C@@H]3CCCNC[C@H]3NC(=O)c3ccncc3)cc2)c1.Cl.Cl.Cl`, the IC50 worked out at 0.03 µM in assay [2] and 0.023 µM in assay [1]. In addition, in assay [3], the equilibrium dissociation constant (Kd) came out at 0.041 µM.

Source of the values: ChEMBL document CHEMBL1145285, “Design and crystal structures of protein kinase B-selective inhibitors in complex with protein kinase A and mutants” (J Med Chem, 2005).
